Where a SMILES comes first, the peptide text is derived from it. Bridges are numbered along the chain shown (N, C = ends). [ ]: non-standard residue; d: D form. The star is where a group is joined. hPhe(3-Cl-4-CF3) = N[C@@H](CCc1ccc(C(F)(F)F)c(Cl)c1)C(=O)O; NPrPhe(4-CF3) = CCCN[C@@H](Cc1ccc(C(F)(F)F)cc1)C(=O)O; NMeGly(cPent) = CN[C@H](C(=O)O)C1CCCC1; Pro(4,4-F2) = O=C(O)[C@@H]1CC(F)(F)CN1; NEtPhe = CCN[C@@H](Cc1ccccc1)C(=O)O; NMeGly(cBu) = CN[C@H](C(=O)O)C1CCC1; NMeD = CN[C@@H](CC(=O)O)C(=O)O; NMeL = CN[C@@H](CC(C)C)C(=O)O; Morpholide = C1CN(*)CCO1; Ac5c = NC1(C(=O)O)CCCC1; Sar = CNCC(=O)O
Experiments:
[1] = test system: human lung cancer strain NCI-H441; assay type: cell-based
Summary of the method: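 Readout: […] after the ATP-based reagent. Compound: serial dilutions in dimethyl sulfoxide.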

[2] = target: GDP-bound NRAS wild-type protein (Homo sapiens, UniProt P01111); assay: Binding to NRAS by surface plasmon resonance (SPR), KD and KD ratio to KRAS
Summary of the method: (§1)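 Affinity is measured by surface plasmon resonance at 30°C against captured, GDP-loaded RAS carrying a biotinylated Avi tag. Compounds are titrated by single-cycle kinetics, and KD comes from a 1:1 fit.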

HRAS wild-type protein = HRAS wild-type protein (Homo sapiens, UniProt P01112); assay: Binding to HRAS by surface plasmon resonance (SPR), KD and KD ratio to KRAS
Summary of the method: as §1

[3] = ratio of KD value for GDP-bound NRAS wild-type protein to KD value for KRAS (SPR)
[4] = ratio of KD value for HRAS wild-type protein to KD value for KRAS (SPR)
[5] = ratio of the KD value with respect to GDP-bound NRAS wild-type protein to the KD value with respect to KRAS
[6] = ratio of the KD value with respect to HRAS wild-type protein to the KD value with respect to KRAS
[7] = ratio of KD for GDP-bound NRAS wild-type protein to KD for KRAS
[8] = ratio of KD for HRAS wild-type protein to KD for KRAS

GDP-bound NRAS wild-type protein, sequence (P01111 whole entry): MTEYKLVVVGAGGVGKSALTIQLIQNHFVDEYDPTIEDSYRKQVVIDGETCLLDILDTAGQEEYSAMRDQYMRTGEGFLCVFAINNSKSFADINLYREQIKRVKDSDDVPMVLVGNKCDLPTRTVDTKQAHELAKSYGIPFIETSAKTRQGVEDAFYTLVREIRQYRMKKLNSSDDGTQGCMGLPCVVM
HRAS wild-type protein, sequence (P01112 whole entry): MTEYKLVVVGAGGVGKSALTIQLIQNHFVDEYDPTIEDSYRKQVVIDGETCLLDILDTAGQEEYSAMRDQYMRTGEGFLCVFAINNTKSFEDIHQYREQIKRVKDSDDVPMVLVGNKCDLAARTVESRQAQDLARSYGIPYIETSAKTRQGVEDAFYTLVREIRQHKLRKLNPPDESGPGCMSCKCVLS

Compound: CCO[C@@H]1C[C@H]2C(=O)NC3(CC(C)(C)C3)C(=O)N(C)[C@@H](C3CCCC3)C(=O)N(C)[C@H](C(=O)N(C)C)CC(=O)N(C)[C@@H](CC)C(=O)N[C@@H]([C@@H](C)CC)C(=O)N(C)CC(=O)N(C)[C@H]3C/C=C\CCN(C3=O)[C@@H](Cc3ccc(C(F)(F)F)cc3)C(=O)N(C)CC(=O)N[C@@H](CCc3ccc(C(F)(F)F)c(OC)c3)C(=O)N2C1 [PP1559]
- IC50 [1]: 1.8 nM
- NRAS /KRAS [2, 3]: A (a compound having 10 or more and less than 20 is denoted as A)
- HRAS /KRAS (HRAS wild-type protein; [4]): A (a compound having 10 or more and less than 20 is denoted as A)

Compound: CCCN1C(=O)CN(C)C(=O)CNC(=O)[C@H]([C@@H](C)CC)NC(=O)[C@H](CC(C)C)N(C)C(=O)C[C@@H](C(=O)N2CCOCC2)N(C)C(=O)[C@H](C2CCCC2)N(C)C(=O)C2(CCCC2)NC(=O)[C@@H]2CC(F)(F)CN2C(=O)[C@H](CCc2ccc(C(F)(F)F)c(Cl)c2)NC(=O)CN(C)C(=O)[C@@H]1Cc1ccc(C(F)(F)F)cc1 [PP0394] ([NMeL]IG[Sar][NPrPhe(4-CF3)][Sar][hPhe(3-Cl-4-CF3)][Pro(4,4-F2)][Ac5c][NMeGly(cPent)][NMeD]-Morpholide; lactam N-11)
- IC50 [1]: 2.6 nM
- NRAS /KRAS [2, 5]: C (A compound having a KD ratio of 0.1 or more and less than 3 is denoted as C)
- HRAS /KRAS (HRAS wild-type protein; [6]): C (A compound having a KD ratio of 0.1 or more and less than 3 is denoted as C)

Compound: CCC[C@H]1C(=O)N[C@@H]([C@@H](C)CC)C(=O)N(C)CC(=O)N(C)[C@H]2C/C=C\CCN(C2=O)[C@@H](Cc2ccc(C(F)(F)F)cc2)C(=O)N(C)CC(=O)N[C@@H](CCc2ccc3c(C)cn(C)c3c2)C(=O)N2C[C@H](OCC)C[C@H]2C(=O)NC2(CC(C)(C)C2)C(=O)N(C)[C@@H](C2CCCC2)C(=O)N(C)[C@H](C(=O)N(C)C)CC(=O)N1C [PP2897]
- IC50 [1]: 10.5 nM
- NRAS /KRAS [2, 7]: A (a compound having 10 or more and less than 20 is denoted as A)
- HRAS /KRAS (HRAS wild-type protein; [8]): B (a compound having 3 or more and less than 10 is denoted as B)

Compound: CC[C@H](C)[C@@H]1NC(=O)[C@H](CC)N(C)C(=O)C[C@@H](C(=O)N(C)CC)N(C)C(=O)[C@H](C2CCCC2)N(C)C(=O)C2(CCC2)NC(=O)[C@@H]2C[C@@H](C)CN2C(=O)[C@H](CCc2ccc(C(F)(F)F)c(OC)c2)NC(=O)CN(C)C(=O)[C@H](Cc2ccc(C)cc2)N2CC/C=C\C[C@@H](C2=O)N(C)C(=O)CN(C)C1=O [PP1855]
- IC50 [1]: 17.7 nM
- NRAS /KRAS [2, 3]: AA (a compound having 20 or more is denoted as AA)
- HRAS /KRAS (HRAS wild-type protein; [4]): A (a compound having 10 or more and less than 20 is denoted as A)

Compound: CCO[C@@H]1C[C@H]2C(=O)NC3(CC(F)(F)C3)C(=O)N(C)[C@@H](C3CCCC3)C(=O)N(C)[C@H](C(=O)N3CCOCC3)CC(=O)N(C)[C@@H](COC)C(=O)N[C@@H]([C@@H](C)CC)C(=O)N(C)CC(=O)N(C)[C@H]3CCCCCN(C3=O)[C@@H](Cc3ccc(C(F)(F)F)cc3)C(=O)N(C)CC(=O)N[C@@H](CCc3cc(F)c(C(F)(F)F)c(F)c3)C(=O)N2C1 [PP0843]
- IC50 [1]: 38.6 nM
- NRAS /KRAS [2, 7]: B (a compound having 3 or more and less than 10 is denoted as B)
- HRAS /KRAS (HRAS wild-type protein; [8]): B (a compound having 3 or more and less than 10 is denoted as B)

Compound: CC[C@H](C)[C@@H]1NC(=O)[C@H](CC(C)C)N(C)C(=O)C[C@@H](C(=O)N2CCOCC2)N(C)C(=O)[C@H](C2CCCC2)N(C)C(=O)C2(CCC2)NC(=O)[C@@H]2[C@H](OC)CCN2C(=O)[C@H](CCc2cc(F)c(C(F)(F)F)c(F)c2)NC(=O)CN(C)C(=O)[C@H](Cc2ccc(C(F)(F)F)cc2)N2CCCC[C@@H](C2=O)N(C)C(=O)CN(C)C1=O [PP1078]
- IC50 [1]: 610 nM
- NRAS /KRAS [2, 7]: B (a compound having 3 or more and less than 10 is denoted as B)
- HRAS /KRAS (HRAS wild-type protein; [8]): B (a compound having 3 or more and less than 10 is denoted as B)

Compound: CCOC[C@H]1C(=O)N[C@@H]([C@@H](C)CC)C(=O)N(C)CC(=O)N(C)[C@H]2C/C=C\CCN(C2=O)[C@@H](Cc2ccc(C(F)(F)F)cc2)C(=O)N(C)CC(=O)N[C@@H](CCc2cc(F)c(C(F)(F)F)c(F)c2)C(=O)N2C[C@H](OCC)C[C@H]2C(=O)NC2(CC(C)(C)C2)C(=O)N(C)[C@@H](C2CCCC2)C(=O)N(C)[C@H](C(=O)N(C)CC)CC(=O)N1C [PP2032]
- IC50 [1]: 8.1 nM
- NRAS /KRAS [2, 5]: A (a compound having 10 or more and less than 20 is denoted as A)
- HRAS /KRAS (HRAS wild-type protein; [6]): B (a compound having 3 or more and less than 10 is denoted as B)

Compound: CCCN1C(=O)CN(C)C(=O)CN(C)C(=O)[C@H]([C@@H](C)CC)NC(=O)[C@H](C2CCC2)N(C)C(=O)C[C@@H](C(=O)N2CCOCC2)N(C)C(=O)[C@H](C2CCCC2)N(C)C(=O)C2(CCCC2)NC(=O)[C@@H]2CC(F)(F)CN2C(=O)[C@H](CCc2ccc(C(F)(F)F)c(Cl)c2)NC(=O)CN(C)C(=O)[C@@H]1Cc1ccc(C(F)(F)F)cc1 [PP0200] ([NMeGly(cBu)]I[Sar][Sar][NPrPhe(4-CF3)][Sar][hPhe(3-Cl-4-CF3)][Pro(4,4-F2)][Ac5c][NMeGly(cPent)][NMeD]-Morpholide; lactam N-11)
- IC50 [1]: 2.5 nM
- NRAS /KRAS [2, 7]: C (A compound having a KD ratio of 0.1 or more and less than 3 is denoted as C)
- HRAS /KRAS (HRAS wild-type protein; [8]): C (A compound having a KD ratio of 0.1 or more and less than 3 is denoted as C)

Compound: CCC[C@H]1C(=O)N[C@@H]([C@@H](C)CC)C(=O)N2CCC[C@H]2C(=O)N(C)[C@H]2C/C=C\CCN(C2=O)[C@@H](Cc2ccc(C(F)(F)F)cc2)C(=O)N(C)CC(=O)N[C@@H](CCc2ccc(C(F)(F)F)c(OC)c2)C(=O)N2C[C@H](OCC)C[C@H]2C(=O)N(C)C2(CCC2)C(=O)N(C)[C@@H](C2CCCC2)C(=O)N(C)[C@H](C(=O)N2CCCCC2)CC(=O)N1C [PP3099]
- IC50 [1]: 13.3 nM
- NRAS /KRAS [2, 7]: A (a compound having 10 or more and less than 20 is denoted as A)
- HRAS /KRAS (HRAS wild-type protein; [8]): A (a compound having 10 or more and less than 20 is denoted as A)

Compound: CCO[C@@H]1CCN2C(=O)[C@H](CCc3cc(F)c(C(F)(F)F)c(F)c3)NC(=O)CN(C)C(=O)[C@H](Cc3ccc(C(F)(F)F)cc3)N3CCCC[C@@H](C3=O)N(C)C(=O)CN(C)C(=O)[C@H]([C@@H](C)CC)NC(=O)[C@H](CC(C)C)N(C)C(=O)C[C@@H](C(=O)N3CCOCC3)N(C)C(=O)[C@H](C3CCCC3)N(C)C(=O)C3(CCC3)NC(=O)[C@H]12 [PP1079]
- IC50 [1]: 27.2 nM
- NRAS /KRAS [2, 7]: B (a compound having 3 or more and less than 10 is denoted as B)
- HRAS /KRAS (HRAS wild-type protein; [8]): B (a compound having 3 or more and less than 10 is denoted as B)

Compound: CC[C@H](C)[C@@H]1NC(=O)[C@H](CC)N(C)C(=O)C[C@@H](C(=O)N(C)CC)N(C)C(=O)[C@H](C2CCCC2)N(C)C(=O)C2(CC(C)(C)C2)NC(=O)[C@@H]2C[C@@H](C)CN2C(=O)[C@H](CCc2ccc(C(F)(F)F)c(Cl)c2)NC(=O)CN(C)C(=O)[C@H](Cc2ccc(C)cc2)N2CC/C=C\C[C@@H](C2=O)N(C)C(=O)CN(C)C1=O [PP1876]
- IC50 [1]: 23 nM
- NRAS /KRAS [2, 3]: A (a compound having 10 or more and less than 20 is denoted as A)
- HRAS /KRAS (HRAS wild-type protein; [4]): A (a compound having 10 or more and less than 20 is denoted as A)

Compound: CC[C@H](C)[C@@H]1NC(=O)[C@H](CC(C)C)N(C)C(=O)C[C@@H](C(=O)N2CCOCC2)N(C)C(=O)[C@H](C2CCCC2)N(C)C(=O)C2(CCCC2)NC(=O)[C@@H]2CCCN2C(=O)[C@H](CCc2ccc(C(F)(F)F)c(Cl)c2)NC(=O)CN(C)C(=O)[C@H](Cc2ccccc2)N(CC)C(=O)CN(C)C(=O)CN(C)C1=O [PP0210] ([NMeL]I[Sar][Sar][NEtPhe][Sar][hPhe(3-Cl-4-CF3)]P[Ac5c][NMeGly(cPent)][NMeD]-Morpholide; lactam N-11)
- IC50 [1]: 17.1 nM
- NRAS /KRAS [2, 7]: C (A compound having a KD ratio of 0.1 or more and less than 3 is denoted as C)
- HRAS /KRAS (HRAS wild-type protein; [8]): C (A compound having a KD ratio of 0.1 or more and less than 3 is denoted as C)
